Test results from patent US4266034A, “Method for producing microbial cells and use thereof to produce oxidation products” (priority 1979, dated 1981).
Where two headings read alike, the source gives them in different places.

How the values were obtained:
[1] = test system: secondary alcohol dehydrogenase; assay: Purified yeast-derived secondary alcohol dehydrogenase activity; type: biochemical, Pichia sp. NRRL Y-11,328
Protocol: Large scale cultures of Pichia sp. NRRL Y-11,328 were grown with aeration at 30° C. in a 14-liter New Brunswick f fermentor in a mineral salt medium containing methanol (0.4%, v/v) as the sole carbon source. The cells (200 g., wet weight) were suspended in […] sodium phosphate buffer, pH 7.0, containing 1 mM dithiothreitol (buffer A), and crude extracts were prepared as described previously. To the crude extracts, 18 ml. of protamine sulfate solution [2% solution in 0.1 M tris (hydroxymethyl) aminomethane (tris) base] was added dropwise with continuous stirring. After standing for 30 min., the extracts were centrifuged at 20,000×g. for 60 min. The supernatant solution was fractionated with solid ammonium sulfate. Extracts were brought to 50% of saturation with respect to ammonium sulfate by addition of 313 g. of the salt per liter of extract. Precipitated proteins was removed by centrifugation, and 137 g. of ammonium sulfate was added per liter of the supernatant liquid to bring it to 70% of saturation. Material precipitating between 50 and 70% of saturation was collected by centrifugation and dissolved in buffer A. This preparation was dialyzed overnight against buffer A, and the dialyzed material was applied to a DEAE-cellulose column (5×40 cm) that had been equilibrated with buffer A. The sample was washed with 200 ml. of buffer A and eluted with 2 liters of buffer A that contained NaCl in a linear gradient running from a concentration of 0 to 0.5 M. Fractions of 15 ml. were collected. Fractions containing secondary alcohol dehydrogenase activity were pooled and were termed DEAE-cellulose eluate. The DEAE-cellulose eluate was concentrated by ammonium sulfate fractionation.
Secondary alcohol dehydrogenase activity was measured spectrophotometrically at 340 nm with a NAD^+ as an electron acceptor. The reaction mixture, in a total 3.0 ml., contained 50 mM phosphate buffer, pH 8.0, 5 μmoles NAD^+, crude extracts, and substrate. […] Protein concentration was determined by the method of Lowry et al.
The substrate specificity of the purified secondary alcohol dehydrogenase was examined spectrophotometrically.

[2] = test system: P(40) particulate fraction of Methylosinus sp. (CRL-15, NRRL B-11,202); assay: Epoxidation of propylene and hydroxylation of methane by P(40) particulate fraction; type: biochemical; conditions: for Rate of Production Formation: substrate oxidized by P(40) fraction, 30° C.; for Methane-Oxidizing Activity / Propylene-Oxidizing Activity: metal 10^-3 M; for Methane-Oxidizing Activity: control 4.0; for Propylene-Oxidizing Activity: control […]; for Propylene Oxide Produced: substrate competition, P(40) fraction
[3] = test system: secondary alcohol dehydrogenase; assay: Cofactor requirement of cell-free soluble extracts oxidizing 2-butanol; type: biochemical; conditions: cell-free systems
Protocol: Catalytic activity was also assayed by fluorescence spectrophotometry.

[4] = test system: secondary alcohol dehydrogenase (SADH); assay: Purified secondary alcohol dehydrogenase (SADH) activity; type: biochemical, Pseudomonas sp. ATCC 21439; conditions: each inhibitor 1 mM, measured spectrofluorometrically
Protocol: Secondary alcohol dehydrogenase (SADH) from an obligate methanol utilizer, Pseudomonas sp. ATCC 21439 was purified as follows. […] 0.05 M sodium phosphate buffer, pH 7.0 with 0.5 mM dithiothretol (buffer A) and were disrupted sonically (5×1 min.). The crude extract was separated by centrifugation. The crude extract was heat-treated at 50° C. in a water bath for 10 minutes. The resulting precipitate was removed by centrifugation. To the supernatant solution, 25 ml of protamine sulfate solution (2% solution in 0.1 M Tris base) was added dropwise with continuous stirring. After standing for 30 minutes, the extract was centrifuged. The supernatant solution was fractionated with solid ammonium sulfate. The material precipitating between 30 and 60% saturation was collected and was dialized overnight against buffer A. The The dialized material was applied to a DEAE-cellulose column (3 cm by 35 cm) that had been equilibrated with buffer A. The secondary alcohol dehydrogenase activity was eluted in the void volume. This DEAE-cellulose eluate was concentrated by ammonium sulfate fractionation. Material precipitating between 30 and 50% ammonium sulfate saturation was collected by centrifugation and dialyzed overnight against A. This fraction was further washed and filtered through an Amicon unit with XM 50 membrane. The concentrated fraction (6 ml) inside the Amicon unit was applied to an Affi-Gel Blue column (0.8 cm×18 cm) which had been equilibrated with buffer A for affinity chromatography. The column was washed overnight with buffer A (0.18 ml./min.) and then was eluted with buffer A containing 5 mM NAD. Each 1 ml. fraction was collected.
The purified secondary alcohol dehydrogenase enzyme (SADH) may be used directly for converting C3 -C6 secondary alcohols to the corresponding methyl ketones by the procedures described above; however, a source of NAD^+ must be added to the reaction medium. One can determine the NAD-linked secondary alcohol dehydrogenase activity with a fluorescence spectrophotometer (Perkin Elmer, Model MPF 44A) by following the formation of reduced NAD (Ex 340 nm, Em 460 nm). The assay system (3 ml.) will typically contain: sodium phosphate buffer pH 7.0, 150 μmol; NAD 1.0 μmol; a given amount of enzyme preparation; and 20 μmol secondary alcohol. The reaction is started by the addition of secondary alcohol. One unit of SADH enzyme activity represents the reduction of one nmole NAD per minute.
The effect of metal-chelating agents and thioreagents on the activity of the purified SADH enzyme were studied. […] The possibility of ethanol or n-propanol as an inhibitor was studied.

[5] = test system: cell-free particulate fractions derived from the methylotrophic microorganisms; assay: Inhibition of conversion of C3-C6 n-alkanes to sec. alcohols by cell-free particulate fractions; type: biochemical; conditions: oxygen and NADH
Description: The conditions for preparing the cell suspensions or the cell-free particulate fractions from methane-grown methylotroph microorganisms is the same as described above. […] Tables XXV and XXVI show the conversion of C3 -C6 n-alkanes to the corresponding secondary alcohols using cell suspensions and cell-free particulate fractions, respectively, of methane-grown methylotroph microorganisms.

[6] = test system: methanol-grown Methylococcus capsulatus CRL M1 (NRRL B-11,219); assay: Production of 2-butanone from 2-butanol by cell suspensions, inhibition studies; type: cell-based; conditions: 1 mM
[7] = examined spectrophotometrically
[8] = purified enzyme, substrate 5.7 (isopropanol) or 6.0 (2-butanol) μmoles

Molecule: CC(O)CO (stereo not drawn) [1,2-propandiol]
- oxidation by the purified enzyme (substrate specificity) [1, 7]: not oxidized

Molecule: C=CCC [1-Butene]
- Rate of Production Formation [2]: 2.18 μ moles/hr/mg of protein

Molecule: C=CCCC [1-Pentene]
- Rate of Production Formation [2]: 0 μ moles/hr/mg of protein

Molecule: O=C1C(Cl)=CC(=Nc2ccc(O)cc2)C=C1Cl [2,6-dichlorophenol indophenol]
- effectiveness as cofactor in place of NAD [3]: not effective
- ability to act as electron carrier in place of NAD^+ ([1]; purified enzyme): could not act as electron carrier

Molecule: CCCCCC(C)O (stereo not drawn) [2-Heptanol]
- oxidation by the purified enzyme (substrate specificity) [1, 7]: not oxidized

Molecule: CCC(C)O (stereo not drawn) [2-butanol]
- oxidation by the purified enzyme (substrate specificity) [1]: catalyzed the oxidation

Molecule: CCCCC(C)O (stereo not drawn) [2-hexanol]
- oxidation by the purified enzyme (substrate specificity) [1, 7]: catalyzed the oxidation

Molecule: CCCCCCC(C)O (stereo not drawn) [2-octanol]
- oxidation by the purified enzyme (substrate specificity) [1, 7]: not oxidized

Molecule: CCCC(C)O (stereo not drawn) [2-pentanol]
- oxidation by the purified enzyme (substrate specificity) [1, 7]: catalyzed the oxidation

Molecule: CC(C)O [2-propanol]
- oxidation by the purified enzyme (substrate specificity) [1, 7]: catalyzed the oxidation
- NAD^+ Reduced [1, 8]: 5.4 µmol
- Product Formed [1, 8]: 5.5 µmol

Molecule: O=C(O)c1cc(SSc2ccc([N+](=O)[O-])c(C(=O)O)c2)ccc1[N+](=O)[O-] [5,5'-dithiobis(2-nitrobenzoic acid)]
- % inhibition of SADH activity [4]: 100%
- % inhibition of SADH activity ([4]; listed as 5,5'-dithiobis (2-nitrobenzoic acid)): inhibited

Molecule: Oc1cccc2cccnc12 [8-Hydroxyquinoline]
- inhibition of the conversion of n-alkanes to sec. alcohols [5]: inhibited

Molecule: C=CC=C [Butadiene]
- Rate of Production Formation [2]: 0.63 μ moles/hr/mg of protein

Molecule: [Co+2] [Co^++]
- % inhibition of SADH activity [4]: 0%

Molecule: O=S(=O)([O-])[O-].[Cu+2] [Cupric Sulfate]
- inhibition of secondary alcohol dehydrogenase activity ([1]; purified enzyme): inhibited
- Methane-Oxidizing Activity [2]: 7.1 μmoles/hr/mg protein
- Propylene-Oxidizing Activity [2]: 9.0 μmoles/hr/mg protein

Molecule: [Cl][Cu] [Cuprous Chloride]
- Methane-Oxidizing Activity [2]: 7.2 μmoles/hr/mg protein
- Propylene-Oxidizing Activity [2]: 9.2 μmoles/hr/mg protein

Molecule: CC [Ethane]
- Rate of Production Formation [2]: 3.2 μ moles/hr/mg of protein

Molecule: C=C [Ethylene]
- Rate of Production Formation [2]: 1.27 μ moles/hr/mg of protein

Molecule: [Cl][Fe]([Cl])[Cl] [Ferric Chloride]
- Methane-Oxidizing Activity [2]: 4.8 μmoles/hr/mg protein
- Propylene-Oxidizing Activity [2]: 5.8 μmoles/hr/mg protein

Molecule: c1c[nH]cn1 [Imidazole]
- inhibition of secondary alcohol dehydrogenase activity ([1]; purified enzyme): strongly inhibited

Molecule: C [Methane]
- Propylene Oxide Produced [2]: 0 μmoles/hr/mg. protein
- Rate of Production Formation [2]: 4.8 μ moles/hr/mg of protein

Molecule: [Mg+2] [Mg^++]
- % inhibition of SADH activity [4]: 0%

Molecule: [Mn+2] [Mn^++]
- % inhibition of SADH activity [4]: 0%

Molecule: CCN1C(=O)C=CC1=O [N-ethylmalemide]
- % inhibition of SADH activity [4]: 6%
- % inhibition of SADH activity ([4]; listed as N-ethylmaleimide): not inhibited

Molecule: NC(=O)C1=CN([C@@H]2O[C@H](COP(=O)(O)OP(=O)(O)OC[C@H]3O[C@@H](n4cnc5c(N)ncnc54)[C@H](OP(=O)(O)O)[C@@H]3O)[C@@H](O)[C@H]2O)C=CC1 [NAD(P)H]
- effectiveness as cofactor in place of NAD [3]: not effective

Molecule: NC(=O)c1ccc[n+]([C@@H]2O[C@H](COP(=O)([O-])OP(=O)(O)OC[C@H]3O[C@@H](n4cnc5c(N)ncnc54)[C@H](OP(=O)(O)O)[C@@H]3O)[C@@H](O)[C@H]2O)c1 [NADP]
- effectiveness as cofactor in place of NAD [3]: not effective
- ability to act as electron carrier in place of NAD^+ ([1]; purified enzyme): could not act as electron carrier

Molecule: C=CC [Propylene]
- inhibition of the conversion of n-alkanes to sec. alcohols [5]: inhibited
- Propylene Oxide Produced [2]: 4.3 μmoles/hr/mg. protein
- Rate of Production Formation [2]: 4.1 μ moles/hr/mg of protein

Molecule: [N-]=[N+]=[N-] [Sodium azide]
- % inhibition of SADH activity [4]: 10%

Molecule: NNC(N)=S [Thiosemicarbazide]
- inhibition of the conversion of n-alkanes to sec. alcohols [5]: inhibited

Molecule: NC(N)=S [Thiourea]
- inhibition of the conversion of n-alkanes to sec. alcohols [5]: inhibited
- Inhibition (%) of production of 2-butanone [6]: not inhibited

Molecule: [Zn+2] [Zn^++]
- % inhibition of SADH activity [4]: 0%

Molecule: CCCCO [butan-1-ol]
- oxidation by the purified enzyme (substrate specificity) [1]: not oxidized

Molecule: CCC(O)CO (stereo not drawn) [butane 1,2-diol]
- oxidation by the purified enzyme (substrate specificity) [1, 7]: not oxidized

Molecule: CC(O)CCO (stereo not drawn) [butane 1,3-diol]
- oxidation by the purified enzyme (substrate specificity) [1, 7]: not oxidized

Molecule: [Cu+2] [cupric]
- % inhibition of SADH activity [4]: 25%

Molecule: CCO [ethanol]
- oxidation by the purified enzyme (substrate specificity) [1]: not oxidized

Molecule: [Fe+3] [ferric]
- % inhibition of SADH activity [4]: 35%

Molecule: [Fe+2] [ferrous]
- % inhibition of SADH activity [4]: 50%

Molecule: Cc1cc2nc3c(=O)[nH]c(=O)nc-3n(C[C@H](O)[C@H](O)[C@H](O)COP(=O)(O)OP(=O)(O)OC[C@H]3O[C@@H](n4cnc5c(N)ncnc54)[C@H](O)[C@@H]3O)c2cc1C [flavin adenine dinucleotide]
- effectiveness as cofactor in place of NAD [3]: not effective
- ability to act as electron carrier in place of NAD^+ ([1]; purified enzyme): could not act as electron carrier

Molecule: N[C@@H](CCC(=O)N[C@@H](CS)C(=O)NCC(=O)O)C(=O)O [glutathione]
- effectiveness as cofactor in place of NAD [3]: not effective
- inhibition of secondary alcohol dehydrogenase activity ([1]; purified enzyme): strongly inhibited

Molecule: N#C[S][Hg][S]C#N [mercuric thiocyanate]
- inhibition of secondary alcohol dehydrogenase activity ([1]; purified enzyme): inhibited

Molecule: CO [methanol]
- oxidation by the purified enzyme (substrate specificity) [1, 7]: not oxidized

Molecule: [Ni+2] [nickel]
- % inhibition of SADH activity [4]: 20%

Molecule: O=C(O)c1cc[c]([Hg+])cc1.[OH-] [p-hydroxymercuribenzoate]
- inhibition of secondary alcohol dehydrogenase activity ([1]; purified enzyme): strongly inhibited
- % inhibition of SADH activity [4]: 100%

Molecule: CCCCCO [pentan-1-ol]
- oxidation by the purified enzyme (substrate specificity) [1, 7]: not oxidized

Molecule: C[n+]1c2ccccc2nc2ccccc21 [phenazine methosulfate]
- effectiveness as cofactor in place of NAD [3]: not effective
- ability to act as electron carrier in place of NAD^+ ([1]; purified enzyme): could not act as electron carrier

Molecule: CCCO [propan-1-ol]
- oxidation by the purified enzyme (substrate specificity) [1]: not oxidized

Molecule: O=[N+]([O-])[O-].[Ag+] [silver nitrate]
- inhibition of secondary alcohol dehydrogenase activity ([1]; purified enzyme): inhibited

Molecule: c1ccc(-c2ccccn2)nc1 [α,α-Bipyridyl]
- inhibition of the conversion of n-alkanes to sec. alcohols [5]: inhibited
- Inhibition (%) of production of 2-butanone [6]: inhibited
- % inhibition of SADH activity [4]: 70%

Molecule: Ferrous Sulfate
- Methane-Oxidizing Activity [2]: 4.8 μmoles/hr/mg protein
- Propylene-Oxidizing Activity [2]: 5.9 μmoles/hr/mg protein

Molecule: cytochrome c
- ability to act as electron carrier in place of NAD^+ ([1]; purified enzyme): could not act as electron carrier
